Where a SMILES comes first, the peptide text is derived from it.

The values that follow come from US7776819B2, “Targeted drug delivery of pain and addiction therapies using opioid receptor-mediated internalization” (The Board of Trustees of the University of Illinois, priority 2005, dated 2010).

The assay has as its target T1, human mu opioid receptors (hMOR) (Homo sapiens, UniProt P35372).
T1 construct: expressed in transfected cells; host or cells: CHO cells, stably transfected (G418 selection); membrane preparation
As to the kind of experiment: [3H]DAMGO displacement receptor binding assay, CHO-hMOR membranes.

T1 sequence (P35372 whole entry): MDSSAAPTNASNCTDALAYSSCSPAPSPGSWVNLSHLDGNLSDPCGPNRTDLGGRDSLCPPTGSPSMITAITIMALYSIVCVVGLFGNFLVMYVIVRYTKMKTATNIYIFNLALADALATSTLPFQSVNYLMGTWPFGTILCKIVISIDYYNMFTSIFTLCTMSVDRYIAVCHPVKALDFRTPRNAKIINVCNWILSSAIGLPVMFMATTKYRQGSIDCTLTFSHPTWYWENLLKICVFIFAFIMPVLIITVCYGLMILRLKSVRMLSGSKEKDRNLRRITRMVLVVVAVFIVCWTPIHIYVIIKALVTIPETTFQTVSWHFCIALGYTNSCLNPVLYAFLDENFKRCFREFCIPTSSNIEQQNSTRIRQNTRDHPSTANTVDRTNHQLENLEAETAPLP
Method: Receptor membranes were prepared from CHO cells transfected with opioid mu receptors. Binding was performed at 30° C. in 50 mM pH 7.4 tris HCl buffer for 1 h for CHO-MOR (100 μg protein/reaction, 1 nM 3H-DAMGO). Reactions were terminated by vacuum filtration through GF/B filters pretreated with 0.2% polyethylenimine. These were then washed twice with ice-cold PBS. Filter-bound radioactivity was determined by liquid scintillation counting. Nonspecific binding was determined in the presence of 20 μM DAMGO.
Briefly, membranes were prepared from CHO-hMOR cells by Polytron homogenization at setting 6 for 2 min on ice, followed by centrifugation at 20,000 g for 30 min at 4° C. Protein content was determined by the Coomassie protein assay method (Pierce Biotechnology, Rockford, Ill.) and bovine serum albumin as the standard. MOR receptor binding was conducted in triplicate with 1 nM [^3H]DAMGO in 50 mM Tris HCl buffer (pH 7.4) at 30° C. for 1 h (50 μg protein/reaction). Nonspecific binding was determined in the presence of 20 μM unlabelled DAMGO. Reactions were terminated by rapid vacuum filtration through GF/B filters presoaked with 0.2% polyethylenimine. Filter-bound radioactivity was determined by liquid scintillation counting (Beckman Coulter Inc., Fullerton, Calif.). Binding data representing the mean ±SD were analyzed using Prism program (GraphPad Software, San Diego, Calif.).

The compound `C[C@@H](NC(=O)[C@@H](N)Cc1ccc(O)cc1)C(=O)N[C@@H](Cc1ccccc1)C(=O)NCC(=O)N[C@@H](Cc1ccc(O)cc1)C(=O)N1CCC[C@H]1C(=O)N[C@@H](CO)C(=O)N[C@@H](CS)C(=O)O` [c-p-dermorphin] (HELM PEPTIDE1{Y.[dA].F.G.Y.P.S.C}$$$$V2.0) registered an IC50 of 25.3 nM.

By IC50 is commonly meant the midpoint of a concentration-inhibition curve. Read a high IC50 as lower potency.
